Like-named read-outs stand apart in the source and are kept apart here.
Assays:
α-glucosidase [1] = target: α-glucosidase; design: method as in PMID 36782003, PMID 35982225, PMID 36928433, PMID 37188744, doi:10.1039/C5MD00280J; details: cited from earlier work
[2] = target: Saccharomyces cerevisiae α-glucosidase enzyme (EC. 3. 2. 1. 20) (Saccharomyces cerevisiae, UniProt P38158); test: In vitro α-glucosidase inhibitory activity; assay type: biochemical
Description: In order to conduct the enzyme assay, the Saccharomyces cerevisiae α-glucosidase enzyme (EC. 3. 2. 1. 20) have been used.

[3] = Concentrations of precipitation; assay type: physicochemical
Description: Table 1 α-Glucosidase inhibitory activity of compounds 8a–t. | column: Concentrations of precipitation (µM)

α-glucosidase [4] = target: α-glucosidase (Saccharomyces cerevisiae, UniProt P38158); test: Enzyme kinetic study (Lineweaver–Burk plot); assay type: biochemical
Chain of α-glucosidase (Saccharomyces cerevisiae, UniProt P38158) (P38158 whole entry): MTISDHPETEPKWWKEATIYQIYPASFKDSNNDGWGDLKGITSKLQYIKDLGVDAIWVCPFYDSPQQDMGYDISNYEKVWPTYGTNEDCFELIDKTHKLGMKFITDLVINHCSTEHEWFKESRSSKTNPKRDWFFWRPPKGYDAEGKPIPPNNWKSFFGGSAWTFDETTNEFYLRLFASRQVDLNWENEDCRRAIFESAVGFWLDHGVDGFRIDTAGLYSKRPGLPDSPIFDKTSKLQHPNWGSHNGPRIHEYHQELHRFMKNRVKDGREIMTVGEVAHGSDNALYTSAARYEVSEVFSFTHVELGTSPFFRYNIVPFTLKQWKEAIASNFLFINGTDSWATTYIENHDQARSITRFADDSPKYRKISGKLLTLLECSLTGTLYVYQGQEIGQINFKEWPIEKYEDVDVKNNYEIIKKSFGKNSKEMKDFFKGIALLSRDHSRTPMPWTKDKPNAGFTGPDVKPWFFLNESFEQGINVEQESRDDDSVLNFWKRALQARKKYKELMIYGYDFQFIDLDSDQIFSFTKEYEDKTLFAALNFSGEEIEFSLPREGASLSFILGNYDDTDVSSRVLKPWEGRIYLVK
Description: A Lineweaver–Burk plot was generated to recognize the type of inhibition and the Michaelis–Menten constant (Km) value was defined from the plot between the reciprocal of the substrate concentration (1/[S]) and reciprocal of enzyme rate (1/V) over different concentrations of inhibitor.

Chain of Saccharomyces cerevisiae α-glucosidase enzyme (EC. 3. 2. 1. 20) (P38158 whole entry): as above

Compound	IC50 [2] [µM]	Concentrations of precipitation [3] [µM]	melting point [°C]	also measured
O=C(N/N=C/c1cc(O)c(O)cc1O)c1ccc(-c2nnc(-c3ccc4ncccc4c3)o2)cc1 [A]	–	–	–	IC50 (α-glucosidase [1]; Fig. 2, study of compound A with its acarbose standard): 2.6 ± 0.01 µM
O=C(N/N=C/c1ccc(Cl)cc1)c1ccc(-c2nc3ccccc3s2)cc1 [F]	–	–	–	IC50 (α-glucosidase [1]; Fig. 2, study of compound F with its acarbose standard): 5.31 ± 0.03 µM
O=C(CSc1nc2ccccc2cc1-c1nc2ccccc2s1)NCCc1ccccc1 [Compound 8t, 2-((3-(benzo[d]thiazol-2-yl)quinolin-2-yl)thio)-N-phenethylacetamide]	222.7 ± 0.9	> 90	225 to 227	–
CCc1ccc(NC(=O)CSc2nc3ccccc3cc2-c2nc3ccccc3s2)cc1 [Compound 8d, 2-((3-(benzo[d]thiazol-2-yl)quinolin-2-yl)thio)-N-(4-ethylphenyl)acetamide]	194.4 ± 0.8	> 90	–	–
Cc1ccc(NC(=O)CSc2nc3ccccc3cc2-c2nc3ccccc3s2)cc1 [Compound 8c, 2-((3-(benzo[d]thiazol-2-yl)quinolin-2-yl)thio)-N-(p-tolyl)acetamide]	384.3 ± 0.3	> 90	–	–
O=C(CSc1nc2ccccc2cc1-c1nc2ccccc2[nH]1)Nc1cccc(Cl)c1 [C]	–	–	–	IC50 (α-glucosidase [1]; Fig. 2, study of compound C with its acarbose standard): 3.2 ± 0.3 µM
Oc1ccc(-c2nnc(-c3ccc(-c4nc5ccccc5s4)cc3)o2)cc1O [E]	–	–	–	IC50 (α-glucosidase [1]; Fig. 2, study of compound E with its acarbose standard): 0.5 ± 0.01 µM
Cc1ccc(CNC(=O)CSc2nc3ccccc3cc2-c2nc3ccccc3s2)cc1 [Compound 8r, 2-((3-(benzo[d]thiazol-2-yl)quinolin-2-yl)thio)-N-(4-methylbenzyl)acetamide]	161.4 ± 0.4	> 90	182 to 184	–
O=C(CSc1nc2ccccc2cc1-c1nc2ccccc2s1)NCc1ccccc1 [Compound 8q, 2-((3-(benzo[d]thiazol-2-yl)quinolin-2-yl)thio)-N-benzylacetamide]	255.6 ± 0.3	> 90	–	–
Cc1cccc(NC(=O)CSc2nc3ccccc3cc2-c2nc3ccccc3s2)c1C [Compound 8e, 2-((3-(benzo[d]thiazol-2-yl)quinolin-2-yl)thio)-N-(2,3-dimethylphenyl)acetamide]	130.4 ± 0.5	> 90	–	–
O=C(CSc1nc2ccccc2cc1-c1nc2ccccc2s1)Nc1ccc(Br)cc1 [Compound 8l, 2-((3-(benzo[d]thiazol-2-yl)quinolin-2-yl)thio)-N-(4-bromophenyl)acetamide]	182.7 ± 1	> 90	–	–
O=C(CSc1nc2ccccc2cc1-c1nc2ccccc2s1)Nc1cccc(Cl)c1 [Compound 8j, 2-((3-(benzo[d]thiazol-2-yl)quinolin-2-yl)thio)-N-(3-chlorophenyl)acetamide]	111.7 ± 1.1	> 90	–	–
O=C(CSc1nc2ccccc2cc1-c1nc2ccccc2s1)Nc1ccccc1Cl [Compound 8i, 2-((3-(benzo[d]thiazol-2-yl)quinolin-2-yl)thio)-N-(2-chlorophenyl)acetamide]	118 ± 1.4	> 90	221 to 223	–
Cc1cccc(C)c1NC(=O)CSc1nc2ccccc2cc1-c1nc2ccccc2s1 [Compound 8f, 2-((3-(benzo[d]thiazol-2-yl)quinolin-2-yl)thio)-N-(2,6-dimethylphenyl)acetamide]	231.6 ± 0.7	> 90	–	–
2-((3-(benzo[d]thiazol-2-yl)quinolin-2-yl)thio)-N-(4-methyl-2-nitrophenyl)acetamide [Compound 8n]	–	> 90	–	IC50 ([2]; α-glucosidase, mean ± SD of three independent determinations of triplicate samples, read-out: IC50): 65.9 ± 1 µM
Cc1ccccc1NC(=O)CSc1nc2ccccc2cc1-c1nc2ccccc2s1 [Compound 8b, 2-((3-(benzo[d]thiazol-2-yl)quinolin-2-yl)thio)-N-(o-tolyl)acetamide]	79.9 ± 1.2	> 90	211 to 213	Potency compared to para-isomer (8c) ([2]; α-glucosidase, more potent than 8c): fivefold
O=C(CSc1nc2ccccc2cc1-c1nc2ccccc2s1)Nc1ccc(F)cc1 [Compound 8h, 2-((3-(benzo[d]thiazol-2-yl)quinolin-2-yl)thio)-N-(4-fluorophenyl)acetamide]	38.2 ± 0.3	> 90	–	Type of inhibition (α-glucosidase [4]; Lineweaver–Burk plot): non-competitive inhibition; Ki (α-glucosidase [4]; read-out: Ki (inhibition constant)): 38.2 µM
O=C(CSc1nc2ccccc2cc1-c1nc2ccccc2s1)Nc1cccc2ccccc12 [Compound 8p, 2-((3-(benzo[d]thiazol-2-yl)quinolin-2-yl)thio)-N-(naphthalen-1-yl)acetamide]	139.8 ± 1	> 90	198 to 200	–
O=C(CSc1nc2ccccc2cc1-c1nc2ccccc2s1)Nc1ccc([N+](=O)[O-])cc1 [Compound 8m, 2-((3-(benzo[d]thiazol-2-yl)quinolin-2-yl)thio)-N-(4-nitrophenyl)acetamide]	198.9 ± 1.5	> 90	209 to 211	–
O=C(CSc1nc2ccccc2cc1-c1nc2ccccc2s1)Nc1ccc(Cl)cc1 [Compound 8k, 2-((3-(benzo[d]thiazol-2-yl)quinolin-2-yl)thio)-N-(4-chlorophenyl)acetamide]	145 ± 1.5	> 90	–	–
O=C(CSc1nc2ccccc2cc1-c1nc2ccccc2s1)Nc1ncc([N+](=O)[O-])s1 [Compound 8o, 2-((3-(benzo[d]thiazol-2-yl)quinolin-2-yl)thio)-N-(5-nitrothiazol-2-yl)acetamide]	47.2 ± 0.6	> 90	199 to 201	–
O=C(CSc1nc2ccccc2cc1-c1nc2ccccc2s1)NCc1ccc(F)cc1 [Compound 8s, 2-((3-(benzo[d]thiazol-2-yl)quinolin-2-yl)thio)-N-(4-fluorobenzyl)acetamide]	130.1 ± 0.7	> 90	213 to 215	Less activity compared to phenyl one ([2]; α-glucosidase, para-fluoro benzyl less active than para-fluoro phenyl): about threefold
Cc1cccc(C)c1NC(=O)CSc1nc2ccccc2cc1/C=N/NC(=O)c1ccccc1 [D]	–	–	–	IC50 (α-glucosidase [1]; Fig. 2, study of compound D with its acarbose standard): 14 ± 0.6 µM
O=C(CSc1nc2ccccc2cc1-c1nc2ccccc2s1)Nc1ccccc1F [Compound 8g, 2-((3-(benzo[d]thiazol-2-yl)quinolin-2-yl)thio)-N-(2-fluorophenyl)acetamide]	198.5 ± 0.9	> 90	201 to 203	–
O=C(CSc1nc2ccccc2cc1-c1nc2ccccc2s1)Nc1ccccc1 [Compound 8a, 2-((3-(benzo[d]thiazol-2-yl)quinolin-2-yl)thio)-N-phenylacetamide]	299 ± 0.1	> 90	–	–
